We go through two compounds from US20200155609A1, “COMPOSITIONS AND METHODS OF MAKING EXPANDED HEMATOPOIETIC STEM CELLS USING PTEN INHIBITORS” (Transfusion Health LLC, priority 2017, published 2020).

In assay [1] the test system is CD34+ cells isolated from donor non-mobilized peripheral blood (hematopoietic stem cells). As to the kind of experiment: Culture of CD34+ cells from non-mobilized peripheral blood with SF1670 or SF1670 and ER50891, flow cytometry (Example 17). The format is cell-based, human. The following applies: after 7 days in culture, SF1670 250 nM (ER50891 100 nM), compared with Base conditions. Here is the method: CD34+ cells were isolated from donor peripheral blood. Whole blood was centrifuged at 1750×g (the speed of centriguation may vary) for 20 minutes. Plasma was drawn off using a pipette or syringe. Concentrated red blood cell (RBC) layer was drawn off with a pipette or syringe. Residual RBCs were lysed using standard RBC lysis protocols. White blood cell (WBC) layer was washed in PBS and spun down several times at 300 g for 7 minutes to remove platelets and some debris. Cells were pelleted and incubated with unlabeled CD64 antibody. Cells then undergo negative depletion using biotinylated CD2, CD3, CD4, CD5, CD8, CD11b, CD14, CD16, CD19, CD20, CD45RA, CD56, CD235 (in some examples CD15, CD25 and other lineage specific antibodies may also be used). Cells which bind these antibodies are depleted using streptavidin beads. The resultant progenitor enriched cell pool were cultured directly (residual mature cells and late progenitors will be killed off over time in culture) or cell pool can undergo a CD34 or CD133 positive selection to further enrich for the desired cells before culturing.
Isolated CD34+ cells were incubated in an in vitro culture media of Alpha MEM without phenol red, 10% (v/v) heat inactivated fetal bovine serum (FBS). Base Conditions, +SF Conditions, and +SF/+ER conditions further included the components described in Table 2. Each condition tested also included an antibiotic solution that includes penicillin, streptomycin, and amphotericin B to avoid contamination.
(§1) Cultures were incubated at 3% oxygen (controlled by nitrogen) and 5% CO2.
(§2) Small molecule components were added separately and fresh each time the media needs to be refreshed. Cytokines can be stored together. Media renewal should occur at least every few days.
(§3) On the days indicated one-half of the volume of the cell culture was removed for data analysis (flow cytometry using a BD FACS ARIA II). The culture volume was replenished with fresh media according to the conditions tested. The data reported accounts for the dilution factor introduced in this procedure.
(In flow cytometry, cells or beads pass a laser one at a time.)

The subject of assay [2] is CD34+ cells isolated from donor non-mobilized peripheral blood. As to the kind of experiment: Titration of SF1670 on CD34+ cells from non-mobilized peripheral blood, flow cytometry (Example 20). The format is cell-based, human.
From the text: CD34+ cells were isolated from donor peripheral blood. Standard ficoll paque layering was used to separate the buffy coat. Cells then undergo negative depletion using biotinylated CD2, CD3, CD4, CD5, CD8, CD1 Ib, CD14, CD16, CD19, CD20, CD45RA, CD56, CD235 (in some examples CD15, CD25 and other lineage specific antibodies may also be used). Cells which bind these antibodies are depleted using streptavidin beads. The depleted cell pool was sorted for CD34+ cells before being placed in cell culture.
Isolated CD34+ cells were incubated in an in vitro culture media of Alpha MEM without phenol red, 10% (v/v) heat inactivated fetal bovine serum (FBS) and +SF conditions. +SF conditions included the components described in Table 5. The culture also included an antibiotic solution that includes penicillin, streptomycin, and amphotericin B to avoid contamination.
as §1, §2, §3

In assay [3] the test system is hematopoietic stem cells derived from cord blood. Description: Culture of cord blood with SF1670, flow cytometry (Example 19). The format is cell-based, human. Here is the method:
A frozen cord blood sample was thawed and gradually brought to room temperature. Thawed cord blood was incubated in an in vitro culture media of Alpha MEM without phenol red, 10% (v/v) heat inactivated fetal bovine serum (FBS). Base Conditions and +SF Conditions further included the components described in Table 4. Each condition tested also included an antibiotic solution that includes penicillin, streptomycin, and amphotericin B to avoid contamination.
as §1, §2, §3

For assay [4], the system named is Primary human CD34+ cells isolated from mobilized peripheral blood. Description: Relative expansive effect (relative cell number), mobilized peripheral blood CD34+ cells in StemSpan SFEM (Example 23). The format is cell-based. Here is the method:
Mobilized peripheral blood was purchased from StemCell Technologies. The blood was mobilized using G-CSF from volunteer donors. Volunteers were administered a maximum of 10 ug/kg/day of granulocyte colony-stimulating factor (G-CSF) for 3-5 days prior to collection. Primary human CD34+ cells were isolated from mobilized peripheral blood leukapheresis samples using positive immunomagnetic separation techniques.
Isolated CD34+ cells were incubated in an in vitro culture media of StemSpan SFEM. When testing the substituted derivatives of 9,10-dihydrophenathrene (+Derivative conditions), two internal controls were used: a positive control (+SF conditions) and a baseline control (i.e, basic conditions (“cytokines only”)). The media components and concentrations used for the compounds tested are described in Table 8, above. The culture also included an antibiotic solution that includes penicillin, streptomycin, and amphotericin B to avoid contamination. Controls were included because the amount of expansion in samples obtained varies from individual to individual.
Cultures were incubated at 3% oxygen (controlled by nitrogen) and 5% CO2. […]
Table 10, below, summarizes the relative expansive effect of Compound 1.013 at the indicated concentration. […] Relative cell number is calculated as described in Example 22.

SMILES strings stand for the structures.

Take `CC(C)(C)C(=O)Nc1ccc2c(c1)C(=O)C(=O)c1ccccc1-2` [SF1670]: in assay [1] (FIG. 1A), the “number of CD34+ cells” value was “increased numbers”. Further, in assay [1] (FIG. 1B), the “number of CD133+ cells” value was “increased numbers”. In assay [1] (FIG. 1C), the “number of CD90+ cells” value is on record as “increased numbers”. For the same compound, in assay [2] (SF1670 125 nM, 250 nM and 500 nM, FIG. 5B-5E), the “expansive effect on the enhancement of hematopoietic stem cells over the control condition (0 nM SF1670)” value is on record as “at least some expansive effect”. For the same compound, the “expansion of any cell type (total cells)” value in assay [2] (SF1670 1000 nM, FIG. 5A) is on record as “very little expansion”. In addition, the expansive effect result in assay [2] (SF1670 1000 nM, days 4 and 7, FIG. 5A-5E) is listed as “reduced expansive effect”. In addition, the “total number of CD34+ cells” value in assay [3] (+SF conditions (SF1670 500 nM) vs Base conditions, FIG. 3B) is on record as “increase”. Also, the “total number of CD133+ cells” value in assay [3] (+SF conditions (SF1670 500 nM) vs Base conditions, FIG. 3C) is listed as “increase”. Further, the “total number of CD90+ cells” value in assay [3] (+SF conditions (SF1670 500 nM) vs Base conditions, FIG. 3D) is “increase”. Further, the “total number of CD38− cells” value in assay [3] (+SF conditions (SF1670 500 nM) vs Base conditions, FIG. 3E) is “increase”. For the same compound, the “fold increase in CD34+ cells from day 2” value in assay [3] (SF1670 500 nM, after 16 days in culture, FIG. 4B) was “greater than 50 fold”. Besides, in assay [3] (SF1670 500 nM, after 16 days in culture, FIG. 4C), the “fold increase in CD133+ cells from day 2” value is reported as “greater than 50 fold”. In addition, the “fold increase in CD90+ cells from day 2” value in assay [3] (SF1670 500 nM, after 16 days in culture, FIG. 4D) is reported as approximately 30 fold. In assay [3] (SF1670 500 nM, after 16 days in culture, FIG. 4E), the “fold increase in CD38− cells from day 2” value is approximately 5 fold.

Take `O=C1C(=O)c2ccc(O)cc2-c2ccccc21` [Compound 1.013, 3-hydroxyphenanthrene-9,10-dione]: the “CD133 effect (relative expansive effect, relative cell number)” value in assay [4] (7 days in culture, 1 μM sample compound, mobilized peripheral blood, StemSpan SFEM) was “+++ (0.55 ≤ x < 0.9)”. For the same compound, in assay [4] (number of cells per well after 7 days, FIG. 18), the “expansive effect on HSCs in culture” value is given as “positive expansive effect”.
